# Experimental data taken from patent publication US9643985B2, “PCL compounds, compositions, and methods of use thereof” (The Board Of Trustees Of The University Of Illinois, priority 2013, dated 2017).
# Read-outs that look alike come from different tables or passages of the source.
# What was measured:
# [1] = Yield of D-Luciferin (A385) after treatment with H2O2
# Text: (§1) The environment inside most cellular compartments is “reducing”—a status heavily dependent on the multiple antioxidant systems that rapidly detoxify oxidants in cells such as thioredoxins and glutathione/glutathione reductase redox systems and catalase. A viable biosensor for an oxidant inside of cells and tissue should detect its target in the presence of these and other ubiquitous milieu components.
# (§2) Data were normalized to bioluminescence obtained from an identical treatment of authentic D-Luciferin (5 μM). […] In all cases, spectral contributions from oxidants were subtracted via a parallel blank experiment containing no PCL-1.
# [2] = Yield of D-Luciferin (A385) after treatment with peroxynitrite (bolus or SIN-1 derived); conditions: for Maximum Yield Luciferin(%): 5 μM PCL-1 in TBS, pH 8.5, 37° C., 90 minutes, A385
# Text: Where applicable, spectral contributions from oxidants were subtracted via a parallel blank experiment containing no PCL-1.
# as §1, §2
# [3] = Rate constant of reaction with H2O2; conditions: 100 mM sodium phosphate, pH 7.4, 37° C. (Table 3)
# [4] = Rate constant of reaction with peroxynitrite, stopped-flow spectroscopy; conditions: 100 mM sodium phosphate, pH 7.4, 37° C. (Table 3)
# [5] = Total bioluminescence after minimal SIN-1 or H2O2 (FIG. 1); conditions: 60 minutes at 37° C.
# Procedure: Recombinant luciferase was added to the reaction mixture and bioluminescence was detected at 612 nm for 60 minutes. D-Luciferin (5 μM) was used as a determinant of maximum yield.
# [6] = rate constant of the competing milieu component with peroxynitrite; cited from earlier work
# [7] = tested on: mouse bone marrow-derived macrophages (BMDM); test: Detection of iNOS-derived peroxynitrite in LPS-stimulated macrophages; assay type: cell-based
# Procedure: Bone marrow derived macrophages were prepared using 10% L929 cell (ATCC) supernatant in RPMI medium (Cellgro) made complete with 10% FBS, penicillin, streptomycin, and glutamine (Gibco). Cells were cultured 4-6 days prior to plating for experiments in opaque, white microtiter plates (Falcon) for analysis on a Wallac Victor2 luminometer (PerkinElmer).
# In order to validate the utility of PCL-1 to detect peroxynitrite in cells, mouse bone marrow-derived macrophages (BMDM) were stimulated with 50 ng/mL bacterial LPS (lipopolysaccharide) for 22 hours, 5 μM PCL-1 was added for an additional 2 hours, then D-Luciferin generated was quantified over the course of 2 hours by addition of […] recombinant luciferase, according to Example 1.
# [8] = tested on: C57BL/6 mice irradiated; test: Irradiated mouse model, fecal PCL-1/luciferin marker by LC-MS/MS; assay type: in vivo
# Procedure: (§3) C57BL/6 mice were irradiated at a high lethal dose of 13Gy or at a LD70/30 of 8.1Gy in independent experiments using a Cs^137 source. PCL-1 was administered via oral gavage at 40 or 60 μM/animal, 0.2 mL volume per animal. Fecal samples were collected […] from the irradiated and non-irradiated mice at different time points (pre-dose, 4, 6 and 8 hr post-dose) prior to irradiation and also on days 1, 5 and 7 post-irradiation from all animals. PCL-1 and cleaved PCL-1 (luciferin) levels were measured in the feces using LC-MS/MS method.
# [9] = Safety of PCL-1 in mice, oral gavage; assay type: in vivo; conditions: 40 to 250 μM per animal via oral gavage
# [10] = Maximum fecal concentrations after oral administration of PCL-1; assay type: in vivo, mice; conditions: up to a 6.25 fold increase in dose
# Procedure: as §3
# Additionally with up to a 6.25 fold increase in dose a directly proportional fold increase in marker detected was not observed.
# [11] = Reactivity of PCL-1 towards other oxidants
molecule,measurement,setting,value
"O=C(O)[C@H]1CSC(c2nc3ccc(OCc4ccc(B(O)O)c(F)c4)cc3s2)=N1 [PCL-F, (S)-2-(6-(4-borono-3-fluorobenzyloxy)benzo[d]thiazol-2-yl)-4,5-dihydrothiazole-4-carboxylic acid]",reactivity with H2O2,"[1]; 5 μM in TBS, pH 8.5, 37° C., 100 μM H2O2, 90 minutes, compared to PCL-1",Little reactivity
same,glutathione concentration until which reactivity with SIN-1 was retained,"[2]; 5 μM, 100 μM SIN-1, 90 minutes",1 to 5 mM
same,kH2O2,[3],0.11 (±0.02) M^−1s^−1
same,kONOO−,[4],4.5 (±0.2) × 10^5 M^−1s^−1
same,resistance to hydrolysis,"[5]; 5 μM, bioluminescence at 612 nm",resistant to hydrolysis in comparison to PCL-1
same,selectivity in detecting peroxynitrite vs. hydrogen peroxide,[5]; SIN-1 (2.5 μM) or H2O2 (25 μM),more selective than PCL-1
N[C@@H](CCC(=O)N[C@@H](CS)C(=O)NCC(=O)O)C(=O)O [glutathione],kONOO−,[6],1400 M⁻¹ s⁻¹
bovine serum albumin: milieu component competing for oxidants,kONOO−,[6],8310 M⁻¹ s⁻¹
O=C(O)[C@H]1CSC(c2nc3ccc(OCc4ccc(B(O)O)cc4)cc3s2)=N1 [PCL-1],Maximum Yield Luciferin(%),"[1]; H2O2 (100 μM) added to 5 μM PCL-1 in TBS, pH 8.5, 37° C., 90 minutes, A385 normalized to authentic D-luciferin",97%
same,yield luciferin,"[1]; H2O2 as oxidant, with added BSA",7.38±1.39%
same,H2O2-mediated conversion to luciferin,"[1]; in the presence of GSH, albumin or catalase",negligible
same,conversion to luciferin by H2O2,"[1]; in vitro, in the absence of GSH, albumin, or catalase",quantitatively converted to luciferin
same,D-luciferin obtained,"[2]; SIN-1, in the presence of BSA",45.49%
same,"effect of GSH, albumin or catalase on peroxynitrite reactivity",[2]; at the tested concentrations,≤ 10%
same,Maximum Yield Luciferin(%),[2]; peroxynitrite bolus (10 μM),95%
same,Maximum Yield Luciferin(%),[2]; peroxynitrite from SIN-1 (100 μM),96%
same,yield of D-Luciferin,"[2]; peroxynitrite, in the presence of 66.5 mg/mL BSA (1.0 mM)",87.5±7.48%
same,kH2O2,[3],1.2 (±0.3) M^−1s^−1
same,kONOO−,[4],9.8 (±0.1) × 10^5 M^−1s^−1
same,D-Luciferin signal,"[7]; BMDMs from iNOS^−/− animals, LPS",no signal above baseline
same,D-Luciferin production over the baseline value,"[7]; wild-type macrophages, LPS 50 ng/mL, 5 μM PCL-1",nearly two-fold increase
same,increase in PCL-1 and % cleaved PCL-1 levels in the feces,"[8]; 8.1Gy irradiation, until day 7",two-fold or more increase
same,increase in the level of the marker in fecal samples vs control,"[8]; 13Gy, days 5 to 7, PCL-1 oral gavage",about 3 fold
same,signs of toxicity,[9],no signs of toxicity were observed
same,dose dependence of fecal detection,[10],not dose dependent
same,"sensitivity towards NO, superoxide radical anion, HOCl, and singlet oxygen",[11],insensitive
